# Source: article PMC8222254, “Self-assembly of an anion receptor with metal-dependent kinase inhibition and potent in vitro anti-cancer properties” (Nature Communications, 2021)
# Where “and” joins values, the source holds several entries; their conditions need not be identical. Equal entries are not always repeated.
# How the values were obtained:
# Assay in all cases: Kinase inhibition screen, cell-free 33P ATP assay at 10 μM
# Assay type in all cases: biochemical
# [1] = biological target: 140 purified human kinases (Homo sapiens, UniProt P08069); conditions: IGF-1R
# Chain of 140 purified human kinases (Homo sapiens, UniProt P08069) (P08069 31-1367): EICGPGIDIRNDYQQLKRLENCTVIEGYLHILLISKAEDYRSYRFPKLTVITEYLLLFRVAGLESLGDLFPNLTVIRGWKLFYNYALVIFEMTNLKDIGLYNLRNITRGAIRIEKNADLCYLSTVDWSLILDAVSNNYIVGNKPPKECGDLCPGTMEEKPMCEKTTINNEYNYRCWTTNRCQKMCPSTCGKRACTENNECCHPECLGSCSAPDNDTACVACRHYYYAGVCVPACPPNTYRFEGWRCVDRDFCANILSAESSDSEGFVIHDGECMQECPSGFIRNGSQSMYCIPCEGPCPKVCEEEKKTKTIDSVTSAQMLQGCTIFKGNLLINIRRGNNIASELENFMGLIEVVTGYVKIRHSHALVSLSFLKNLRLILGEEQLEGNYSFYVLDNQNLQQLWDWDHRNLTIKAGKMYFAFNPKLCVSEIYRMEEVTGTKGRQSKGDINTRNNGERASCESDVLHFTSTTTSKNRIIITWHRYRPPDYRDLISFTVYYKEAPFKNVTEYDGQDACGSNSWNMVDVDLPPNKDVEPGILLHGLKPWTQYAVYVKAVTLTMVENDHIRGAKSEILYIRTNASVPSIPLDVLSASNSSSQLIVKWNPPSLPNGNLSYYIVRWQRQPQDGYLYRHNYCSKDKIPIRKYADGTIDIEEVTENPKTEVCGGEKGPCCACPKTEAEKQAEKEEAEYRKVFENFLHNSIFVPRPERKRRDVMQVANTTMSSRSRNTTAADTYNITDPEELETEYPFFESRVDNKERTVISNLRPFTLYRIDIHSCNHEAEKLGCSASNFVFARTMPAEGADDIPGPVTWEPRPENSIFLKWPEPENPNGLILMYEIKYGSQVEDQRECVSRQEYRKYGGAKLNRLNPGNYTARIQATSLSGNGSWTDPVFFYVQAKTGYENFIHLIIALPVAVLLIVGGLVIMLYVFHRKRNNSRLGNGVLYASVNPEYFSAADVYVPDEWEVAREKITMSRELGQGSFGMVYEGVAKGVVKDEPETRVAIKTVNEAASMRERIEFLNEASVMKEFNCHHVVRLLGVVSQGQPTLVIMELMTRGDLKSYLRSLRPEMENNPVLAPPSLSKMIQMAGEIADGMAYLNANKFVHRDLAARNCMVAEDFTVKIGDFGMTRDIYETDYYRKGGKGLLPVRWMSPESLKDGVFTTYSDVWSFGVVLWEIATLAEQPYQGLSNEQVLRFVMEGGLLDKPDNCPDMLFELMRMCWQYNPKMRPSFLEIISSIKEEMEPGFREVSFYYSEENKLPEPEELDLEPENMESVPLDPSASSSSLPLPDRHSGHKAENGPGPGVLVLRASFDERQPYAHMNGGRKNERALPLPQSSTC
# In short: (§1)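 Each complex tested in duplicate at 10 μM; cell-free radiometric assay using ^33P ATP on purified enzymes. Hits mapped by HGNC symbol onto the kinome tree.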
# [2] = biological target: 140 purified human kinases (Homo sapiens, UniProt P27448)
# In short: as §1
# [3] = biological target: 140 purified human kinases (Homo sapiens, UniProt Q15746); conditions: SmMLCK
# Chain of 140 purified human kinases (Homo sapiens, UniProt Q15746) (Q15746 whole entry): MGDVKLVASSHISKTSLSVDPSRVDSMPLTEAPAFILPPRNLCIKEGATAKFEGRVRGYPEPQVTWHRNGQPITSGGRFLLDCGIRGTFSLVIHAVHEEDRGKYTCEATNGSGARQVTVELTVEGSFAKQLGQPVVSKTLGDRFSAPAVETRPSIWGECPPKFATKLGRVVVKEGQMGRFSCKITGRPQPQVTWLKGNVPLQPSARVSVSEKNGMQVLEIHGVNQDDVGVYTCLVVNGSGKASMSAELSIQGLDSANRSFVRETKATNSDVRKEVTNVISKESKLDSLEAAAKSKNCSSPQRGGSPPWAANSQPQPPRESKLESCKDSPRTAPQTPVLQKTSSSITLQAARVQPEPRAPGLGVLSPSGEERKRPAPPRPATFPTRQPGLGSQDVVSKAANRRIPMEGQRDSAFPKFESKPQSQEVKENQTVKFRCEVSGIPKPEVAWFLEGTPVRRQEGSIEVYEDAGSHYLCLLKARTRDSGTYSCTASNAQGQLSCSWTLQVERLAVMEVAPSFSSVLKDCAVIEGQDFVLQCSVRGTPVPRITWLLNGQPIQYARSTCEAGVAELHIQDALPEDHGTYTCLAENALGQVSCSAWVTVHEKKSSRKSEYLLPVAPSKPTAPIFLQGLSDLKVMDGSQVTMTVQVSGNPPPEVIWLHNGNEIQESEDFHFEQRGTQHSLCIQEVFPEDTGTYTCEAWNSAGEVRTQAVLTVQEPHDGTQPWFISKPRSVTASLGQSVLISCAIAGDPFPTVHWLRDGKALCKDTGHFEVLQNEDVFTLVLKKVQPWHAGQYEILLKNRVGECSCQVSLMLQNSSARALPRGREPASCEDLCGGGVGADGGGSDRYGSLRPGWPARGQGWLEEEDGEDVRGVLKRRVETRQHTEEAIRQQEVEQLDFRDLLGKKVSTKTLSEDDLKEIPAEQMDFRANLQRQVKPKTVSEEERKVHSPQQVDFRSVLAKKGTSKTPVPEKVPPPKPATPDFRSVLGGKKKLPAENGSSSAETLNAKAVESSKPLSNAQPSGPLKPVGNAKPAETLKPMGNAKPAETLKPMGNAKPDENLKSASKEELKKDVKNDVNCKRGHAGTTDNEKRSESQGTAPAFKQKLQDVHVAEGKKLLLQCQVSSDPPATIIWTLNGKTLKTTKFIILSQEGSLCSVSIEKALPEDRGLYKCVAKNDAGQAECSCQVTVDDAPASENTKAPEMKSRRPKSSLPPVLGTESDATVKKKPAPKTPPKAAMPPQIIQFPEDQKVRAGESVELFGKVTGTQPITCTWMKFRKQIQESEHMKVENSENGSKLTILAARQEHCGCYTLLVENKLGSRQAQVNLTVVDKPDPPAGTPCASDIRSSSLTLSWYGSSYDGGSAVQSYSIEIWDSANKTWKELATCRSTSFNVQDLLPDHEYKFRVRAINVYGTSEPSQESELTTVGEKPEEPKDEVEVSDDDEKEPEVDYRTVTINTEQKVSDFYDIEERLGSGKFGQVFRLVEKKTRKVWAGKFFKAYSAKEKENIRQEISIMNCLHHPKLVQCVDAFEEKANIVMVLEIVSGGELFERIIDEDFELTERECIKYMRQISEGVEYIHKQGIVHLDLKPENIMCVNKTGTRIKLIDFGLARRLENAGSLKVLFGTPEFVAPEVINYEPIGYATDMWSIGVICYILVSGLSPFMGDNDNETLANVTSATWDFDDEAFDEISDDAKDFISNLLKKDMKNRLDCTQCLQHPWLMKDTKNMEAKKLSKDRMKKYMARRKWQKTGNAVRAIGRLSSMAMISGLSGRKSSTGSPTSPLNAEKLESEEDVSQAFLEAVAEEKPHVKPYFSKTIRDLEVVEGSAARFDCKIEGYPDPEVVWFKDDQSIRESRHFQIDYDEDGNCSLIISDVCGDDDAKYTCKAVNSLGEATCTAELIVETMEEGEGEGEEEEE
# In short: as §1
# [4] = biological target: 140 purified human kinases (Homo sapiens, UniProt Q16584)
# In short: as §1
# [5] = biological target: T1, 140 purified human kinases (Homo sapiens, UniProt Q8IVH8)
# T1 sequence (Q8IVH8 1-894): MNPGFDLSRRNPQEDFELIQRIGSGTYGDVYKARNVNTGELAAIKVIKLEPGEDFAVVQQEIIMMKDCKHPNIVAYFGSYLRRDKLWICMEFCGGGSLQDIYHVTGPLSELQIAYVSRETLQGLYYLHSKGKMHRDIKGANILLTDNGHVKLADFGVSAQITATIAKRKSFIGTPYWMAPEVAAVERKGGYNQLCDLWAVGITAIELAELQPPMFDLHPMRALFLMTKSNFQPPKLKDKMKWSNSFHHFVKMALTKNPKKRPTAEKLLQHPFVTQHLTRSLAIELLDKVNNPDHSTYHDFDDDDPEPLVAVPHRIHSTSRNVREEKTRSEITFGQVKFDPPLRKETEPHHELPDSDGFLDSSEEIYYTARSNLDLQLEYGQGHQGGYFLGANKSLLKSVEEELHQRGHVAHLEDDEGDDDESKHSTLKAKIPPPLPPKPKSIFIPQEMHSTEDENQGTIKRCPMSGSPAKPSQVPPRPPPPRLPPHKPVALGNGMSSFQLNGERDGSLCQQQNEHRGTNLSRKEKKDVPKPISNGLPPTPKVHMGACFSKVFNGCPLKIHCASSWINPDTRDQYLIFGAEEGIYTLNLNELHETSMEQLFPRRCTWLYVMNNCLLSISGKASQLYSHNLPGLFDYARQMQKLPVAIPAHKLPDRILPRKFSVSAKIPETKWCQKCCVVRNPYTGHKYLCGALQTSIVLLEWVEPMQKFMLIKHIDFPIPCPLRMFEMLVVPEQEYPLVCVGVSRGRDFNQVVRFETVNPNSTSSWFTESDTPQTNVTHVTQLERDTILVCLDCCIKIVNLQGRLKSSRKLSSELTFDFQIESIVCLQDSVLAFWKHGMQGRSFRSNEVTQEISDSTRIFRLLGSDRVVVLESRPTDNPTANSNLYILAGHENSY
# In short: as §1
# [6] = biological target: 140 purified human kinases (Homo sapiens, UniProt Q9H422)
# Chain of 140 purified human kinases (Homo sapiens, UniProt Q9H422) (Q9H422 whole entry): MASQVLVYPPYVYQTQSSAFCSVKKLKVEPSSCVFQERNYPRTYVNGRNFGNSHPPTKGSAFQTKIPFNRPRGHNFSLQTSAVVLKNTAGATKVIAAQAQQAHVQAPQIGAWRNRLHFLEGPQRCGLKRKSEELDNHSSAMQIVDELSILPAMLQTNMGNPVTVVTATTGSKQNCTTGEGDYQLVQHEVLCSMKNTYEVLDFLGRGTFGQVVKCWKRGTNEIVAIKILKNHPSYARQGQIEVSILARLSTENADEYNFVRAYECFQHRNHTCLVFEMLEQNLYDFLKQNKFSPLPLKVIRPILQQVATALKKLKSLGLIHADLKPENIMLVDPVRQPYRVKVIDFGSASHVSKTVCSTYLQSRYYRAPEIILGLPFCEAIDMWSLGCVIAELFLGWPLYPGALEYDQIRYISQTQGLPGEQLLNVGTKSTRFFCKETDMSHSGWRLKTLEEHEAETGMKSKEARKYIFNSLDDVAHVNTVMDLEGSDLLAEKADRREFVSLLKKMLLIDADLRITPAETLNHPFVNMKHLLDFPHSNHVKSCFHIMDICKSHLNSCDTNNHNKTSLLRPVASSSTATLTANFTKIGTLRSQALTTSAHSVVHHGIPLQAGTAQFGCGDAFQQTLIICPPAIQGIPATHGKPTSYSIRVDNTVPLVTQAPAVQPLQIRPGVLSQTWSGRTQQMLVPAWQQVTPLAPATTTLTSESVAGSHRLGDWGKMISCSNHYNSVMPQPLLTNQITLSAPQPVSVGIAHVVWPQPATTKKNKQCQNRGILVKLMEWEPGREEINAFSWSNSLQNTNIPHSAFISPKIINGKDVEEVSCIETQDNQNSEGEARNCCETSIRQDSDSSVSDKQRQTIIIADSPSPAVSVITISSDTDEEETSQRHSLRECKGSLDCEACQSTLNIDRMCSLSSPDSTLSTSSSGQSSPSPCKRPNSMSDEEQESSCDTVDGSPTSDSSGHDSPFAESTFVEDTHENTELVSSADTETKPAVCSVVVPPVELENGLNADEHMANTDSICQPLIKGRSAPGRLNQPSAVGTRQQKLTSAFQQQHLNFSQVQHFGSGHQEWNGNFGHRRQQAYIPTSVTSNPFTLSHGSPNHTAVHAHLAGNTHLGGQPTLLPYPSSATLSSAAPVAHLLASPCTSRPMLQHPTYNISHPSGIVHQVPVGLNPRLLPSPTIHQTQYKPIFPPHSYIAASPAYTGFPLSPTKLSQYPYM
# In short: as §1
# [7] = biological target: T2, 140 purified human kinases (Homo sapiens, UniProt Q9NZJ5)
# T2 sequence (Q9NZJ5 30-1116): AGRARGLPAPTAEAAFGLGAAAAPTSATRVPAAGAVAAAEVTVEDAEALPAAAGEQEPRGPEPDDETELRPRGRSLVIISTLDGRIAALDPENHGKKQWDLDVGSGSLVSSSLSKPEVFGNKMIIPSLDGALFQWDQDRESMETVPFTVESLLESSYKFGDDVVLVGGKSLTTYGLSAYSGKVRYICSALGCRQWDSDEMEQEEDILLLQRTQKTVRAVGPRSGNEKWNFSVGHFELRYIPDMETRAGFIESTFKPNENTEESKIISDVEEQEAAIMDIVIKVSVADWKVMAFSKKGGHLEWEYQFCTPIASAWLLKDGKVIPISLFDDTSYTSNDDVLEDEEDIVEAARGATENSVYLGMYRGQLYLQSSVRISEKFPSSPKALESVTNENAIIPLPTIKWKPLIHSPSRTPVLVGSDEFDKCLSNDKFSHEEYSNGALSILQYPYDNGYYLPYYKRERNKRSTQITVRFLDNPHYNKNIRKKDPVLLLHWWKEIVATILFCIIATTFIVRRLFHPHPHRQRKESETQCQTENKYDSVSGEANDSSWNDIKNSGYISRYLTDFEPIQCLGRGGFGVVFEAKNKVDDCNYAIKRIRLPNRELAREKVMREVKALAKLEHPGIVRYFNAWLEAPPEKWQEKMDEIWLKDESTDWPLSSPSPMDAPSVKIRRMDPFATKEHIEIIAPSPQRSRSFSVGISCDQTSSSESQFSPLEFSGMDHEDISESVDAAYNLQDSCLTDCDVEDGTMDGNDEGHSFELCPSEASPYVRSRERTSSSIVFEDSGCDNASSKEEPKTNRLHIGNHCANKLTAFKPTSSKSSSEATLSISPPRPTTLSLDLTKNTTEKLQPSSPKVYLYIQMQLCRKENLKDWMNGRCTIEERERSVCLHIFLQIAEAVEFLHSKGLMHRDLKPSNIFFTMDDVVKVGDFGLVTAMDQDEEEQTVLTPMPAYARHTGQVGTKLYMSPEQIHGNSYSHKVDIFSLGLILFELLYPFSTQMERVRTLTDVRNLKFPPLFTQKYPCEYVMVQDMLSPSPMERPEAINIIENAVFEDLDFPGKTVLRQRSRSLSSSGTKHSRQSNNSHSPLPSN
# In short: as §1
smiles,measurement,setting,value
[Cu+2].[Cu+2].[Cu+2].c1ccc(-c2csc(NCCN(CCNc3nc(-c4ccccn4)cs3)CCNc3nc(-c4ccccn4)cs3)n2)nc1.c1ccc(-c2csc(NCCN(CCNc3nc(-c4ccccn4)cs3)CCNc3nc(-c4ccccn4)cs3)n2)nc1 [[L2Cu3]6+],% Inhibition Run 1,[1],0%
same,% Inhibition Run 2,[1],16.4%
same,"% Inhibition, Mean",[1],8%
same,mean % activity,[1],92%
same,% activity,[1]; Run 1,100%
same,% activity,[1]; Run 2,83.6%
same,% Inhibition Run 1,[2]; MARK3,28.5%
same,% Inhibition Run 2,[2]; MARK3,28.2%
same,"% Inhibition, Mean",[2]; MARK3,28%
same,mean % activity,[2]; MARK3,72%
same,% activity,"[2]; MARK3, Run 1",71.5%
same,% activity,"[2]; MARK3, Run 2",71.8%
same,% Inhibition Run 1,[3],59.8%
same,% Inhibition Run 2,[3],52.2%
same,"% Inhibition, Mean",[3],56%
same,mean % activity,[3],44%
same,% activity,[3]; Run 1,40.2%
same,% activity,[3]; Run 2,47.8%
same,% Inhibition Run 1,[4]; MLK3,94.9%
same,% Inhibition Run 2,[4]; MLK3,94.9%
same,"% Inhibition, Mean",[4]; MLK3,95%
same,mean % activity,[4]; MLK3,5%
same,% activity,"[4]; MLK3, Run 1",5.1%
same,% activity,"[4]; MLK3, Run 2",5.1%
same,% Activity inhibition Mean,"[4]; MLK3, 10 µM",94.9%
same,% Activity inhibition Run 1,"[4]; MLK3, 10 µM",94.9%
same,% Activity inhibition Run 2,"[4]; MLK3, 10 µM",94.9%
same,% Activity remaining Run 1,"[4]; MLK3, 10 µM",5.10%
same,% Activity remaining Run 2,"[4]; MLK3, 10 µM",5.10%
same,% Inhibition Run 1,[5]; MAP4K3,72.4%
same,% Inhibition Run 2,[5]; MAP4K3,85.5%
same,"% Inhibition, Mean",[5]; MAP4K3,79%
same,mean % activity,[5]; MAP4K3,21%
same,% activity,"[5]; MAP4K3, Run 1",27.6%
same,% activity,"[5]; MAP4K3, Run 2",14.5%
same,% Inhibition Run 1,[6]; HIPK3,56.3%
same,% Inhibition Run 2,[6]; HIPK3,58.6%
same,"% Inhibition, Mean",[6]; HIPK3,57%
same,mean % activity,[6]; HIPK3,43%
same,% activity,"[6]; HIPK3, Run 1",43.7%
same,% activity,"[6]; HIPK3, Run 2",41.4%
same,% Inhibition Run 1,[7]; EIF2AK3,39.9%
same,% Inhibition Run 2,[7]; EIF2AK3,30.4%
same,"% Inhibition, Mean",[7]; EIF2AK3,35%
same,mean % activity,[7]; EIF2AK3,65%
same,% activity,"[7]; EIF2AK3, Run 1",60.1%
same,% activity,"[7]; EIF2AK3, Run 2",69.6%
CC(=O)[O-].CC(=O)[O-].CC(=O)[O-].CC(=O)[O-].CC(=O)[O-].CC(=O)[O-].[Zn+2].[Zn+2].[Zn+2].c1ccc(-c2csc(NCCN(CCNc3nc(-c4ccccn4)cs3)CCNc3nc(-c4ccccn4)cs3)n2)nc1.c1ccc(-c2csc(NCCN(CCNc3nc(-c4ccccn4)cs3)CCNc3nc(-c4ccccn4)cs3)n2)nc1 [[L2Zn3]6+],"% Inhibition, Mean",[1],0.5%
same,mean % activity,[1],100%
same,% activity,[1]; duplicate runs,92% and 107%
same,"% Inhibition, Mean",[2]; MARK3,4.7%
same,"% Inhibition, Run 1 / Run 2",[2]; MARK3,1.7% and 8%
same,mean % activity,[2]; MARK3,95%
same,% activity,"[2]; MARK3, duplicate runs",98% and 92%
same,"% Inhibition, Mean",[3],3.75%
same,mean % activity,[3],96%
same,% activity,[3]; duplicate runs,76% and 117%
same,"% Inhibition, Mean",[4]; MLK3,5%
same,"% Inhibition, Run 1 / Run 2",[4]; MLK3,4% and 6%
same,mean % activity,[4]; MLK3,95%
same,% activity,"[4]; MLK3, duplicate runs",96% and 94%
same,"% Inhibition, Mean",[5]; MAP4K3,45%
same,"% Inhibition, Run 1 / Run 2",[5]; MAP4K3,48% and 43%
same,mean % activity,[5]; MAP4K3,55%
same,% activity,"[5]; MAP4K3, duplicate runs",52% and 58%
same,"% Inhibition, Mean",[6]; HIPK3,15%
same,mean % activity,[6]; HIPK3,85%
same,% activity,"[6]; HIPK3, duplicate runs",97% and 72%
same,"% Inhibition, Mean",[7]; EIF2AK3,37%
same,"% Inhibition, Run 1 / Run 2",[7]; EIF2AK3,45% and 29%
same,mean % activity,[7]; EIF2AK3,63%
same,% activity,"[7]; EIF2AK3, duplicate runs",55% and 71%
